Test results published in patent US20230016424A1, “HYBRID AMIDE DERIVATIVES OF AMPHOTERICIN B” (The Board of Trustees of the University of Illinois, priority 2019, published 2023).
Values after ≈ are worked out from the molar mass of the structure shown.

How the values were obtained:
C. albicans SN250 = test: MIC; format: cell-based, Candida albicans
C. albicans = test: MIC; format: cell-based
C. krusei = test: MIC; format: cell-based
C. glabrata = test: MIC; format: cell-based
C. tropicalis = test: MIC; format: cell-based
A. fumigatus 91 = test: MIC; format: cell-based
A. fumigatus 1163 = test: MIC; format: cell-based
A. fumigatus 1100 = test: MIC; format: cell-based
[1] = test system: C. albicans SN250, C. albicans, C. krusei, C. glabrata, C. tropicalis, A. fumigatus 91, 1163, 1100; test: Average MIC over the tested strains; format: cell-based; parameters: Avg. MIC of AmB amide: unit not given here; conditions: for MIC: average over the 8 listed strains; for Average MIC for AmB analogue: value of the corresponding AmB analogue
[2] = Tables 8 and 9, average over the 8 listed strains

Row | Compound | MIC C. albicans SN250 (C. albicans SN250) [µM] | MIC C. albicans (C. albicans) [µM] | MIC C. krusei (C. krusei) [µM] | MIC C. glabrata (C. glabrata) [µM] | MIC C. tropicalis (C. tropicalis) [µM] | MIC A. fumigatus 91 (A. fumigatus 91) [µM] | MIC A. fumigatus 1163 (A. fumigatus 1163) [µM] | MIC A. fumigatus 1100 (A. fumigatus 1100) [µM] | MIC [1] [µM] | Average MIC for AmB analogue ([1]; not of the C2’epi compound) [μM] | Average MIC [1, 2] [µM] | Average MIC ([1]; Table 12, C16 amides of C2'epiAmB) [µM] | Average MIC ([1]; Table 13, C16 amides of C2’epiAmB) [µM] | Avg. MIC of AmB amide ([1]; value of the corresponding C16 amide of AmB, not of the C2’epi compound)
1 | CC1C=CC=CC=CC=CC=CC=CC=CC(OC2OC(C)C(O)C(N)C2O)CC2OC(O)(CC(O)CC(O)C(O)CCC(O)CC(O)CC(=O)OC(C)C(C)C1O)CC(O)C2C(=O)NC1CC1 (stereo not shown) [BD] | 0.5 (≈ 0.482 µg/mL) | 1 (≈ 0.963 µg/mL) | 4 (≈ 3.85 µg/mL) | 0.5 (≈ 0.482 µg/mL) | 0.5 (≈ 0.482 µg/mL) | 8 (≈ 7.71 µg/mL) | 6 (≈ 5.78 µg/mL) | 4 (≈ 3.85 µg/mL) | 3.063 | 0.500 | – | – | – | –
2 | COCCNC(=O)C1C(O)CC2(O)CC(O)CC(O)C(O)CCC(O)CC(O)CC(=O)OC(C)C(C)C(O)C(C)C=CC=CC=CC=CC=CC=CC=CC(OC3OC(C)C(O)C(N)C3O)CC1O2 (stereo not shown) [AG] | 0.4 (≈ 0.392 µg/mL) | 035 (≈ 34.3 µg/mL) | 1 (≈ 0.981 µg/mL) | 0.3 (≈ 0.294 µg/mL) | 0.4 (≈ 0.392 µg/mL) | 2 (≈ 1.96 µg/mL) | 1 (≈ 0.981 µg/mL) | 1 (≈ 0.981 µg/mL) | 0.806 | – | – | – | – | –
3 | CC1C=CC=CC=CC=CC=CC=CC=CC(OC2OC(C)C(O)C(N)C2O)CC2OC(O)(CC(O)CC(O)C(O)CCC(O)CC(O)CC(=O)OC(C)C(C)C1O)CC(O)C2C(=O)NCCS (stereo not shown) [AB] | 0.4 (≈ 0.393 µg/mL) | 0.45 (≈ 0.442 µg/mL) | 1 (≈ 0.983 µg/mL) | 0.35 (≈ 0.344 µg/mL) | 0.45 (≈ 0.442 µg/mL) | 1 (≈ 0.983 µg/mL) | 1 (≈ 0.983 µg/mL) | 1 (≈ 0.983 µg/mL) | 0.706 | – | – | – | – | –
4 | CC1C=CC=CC=CC=CC=CC=CC=CC(OC2OC(C)C(O)C(N)C2O)CC2OC(O)(CC(O)CC(O)C(O)CCC(O)CC(O)CC(=O)OC(C)C(C)C1O)CC(O)C2C(=O)NC1CCCCCCCCCCC1 (stereo not shown) [AR12] | – | 2000 (≈ 2180 µg/mL) | 8000 (≈ 8720 µg/mL) | – | 3000 (≈ 3270 µg/mL) | – | – | 8000 (≈ 8720 µg/mL) | – | – | 5000 | – | – | –
5 | CC1C=CC=CC=CC=CC=CC=CC=CC(OC2OC(C)C(O)C(N)C2O)CC2OC(O)(CC(O)CC(O)C(O)CCC(O)CC(O)CC(=O)OC(C)C(C)C1O)CC(O)C2C(=O)NCC(O)CO (mixture of isomers) [AJ] | 0.15 | 0.20 | 0.3 | 0.08 | 0.2 | 1 | 0.3 | 0.4 | 0.329 | – | – | – | – | –
6 | CC1C=CC=CC=CC=CC=CC=CC=CC(OC2OC(C)C(O)C(N)C2O)CC2OC(O)(CC(O)CC(O)C(O)CCC(O)CC(O)CC(=O)OC(C)C(C)C1O)CC(O)C2C(=O)NC1CCCCC1 (stereo not shown) [AR6] | 500 (≈ 503 µg/mL) | – | – | 750 (≈ 754 µg/mL) | 500 (≈ 503 µg/mL) | – | 1000 (≈ 1010 µg/mL) | 1500 (≈ 1510 µg/mL) | – | – | 891 | – | – | –
7 | CCC(CO)NC(=O)C1C(O)CC2(O)CC(O)CC(O)C(O)CCC(O)CC(O)CC(=O)OC(C)C(C)C(O)C(C)C=CC=CC=CC=CC=CC=CC=CC(OC3OC(C)C(O)C(N)C3O)CC1O2 (stereo not shown) [AD] | 0.3 (≈ 0.299 µg/mL) | 0.35 (≈ 0.348 µg/mL) | 0.5 (≈ 0.498 µg/mL) | 0.3 (≈ 0.299 µg/mL) | 0.4 (≈ 0.398 µg/mL) | 2 (≈ 1.99 µg/mL) | 1 (≈ 0.995 µg/mL) | 1 (≈ 0.995 µg/mL) | 0.731 | – | – | – | – | –
8 | CC1C=CC=CC=CC=CC=CC=CC=CC(OC2OC(C)C(O)C(N)C2O)CC2OC(O)(CC(O)CC(O)C(O)CCC(O)CC(O)CC(=O)OC(C)C(C)C1O)CC(O)C2C(=O)NC1CC1 (stereo not shown) [AR3] | – | 250 (≈ 241 µg/mL) | 250 (≈ 241 µg/mL) | – | 250 (≈ 241 µg/mL) | – | 500 (≈ 482 µg/mL) | – | – | – | 438 | – | – | –
9 | CC1C=CC=CC=CC=CC=CC=CC=CC(OC2OC(C)C(O)C(N)C2O)CC2OC(O)(CC(O)CC(O)C(O)CCC(O)CC(O)CC(=O)OC(C)C(C)C1O)CC(O)C2C(=O)NC(CO)C(C)(C)C (stereo not shown) [AF] | 0.4 (≈ 0.409 µg/mL) | 0.5 (≈ 0.512 µg/mL) | 1 (≈ 1.02 µg/mL) | 0.4 (≈ 0.409 µg/mL) | 0.75 (≈ 0.767 µg/mL) | 2 (≈ 2.05 µg/mL) | 2 (≈ 2.05 µg/mL) | 2 (≈ 2.05 µg/mL) | 1.131 | – | – | – | – | –
10 | CC(O)CNC(=O)C1C(O)CC2(O)CC(O)CC(O)C(O)CCC(O)CC(O)CC(=O)OC(C)C(C)C(O)C(C)C=CC=CC=CC=CC=CC=CC=CC(OC3OC(C)C(O)C(N)C3O)CC1O2 (stereo not shown) [AH] | 0.35 (≈ 0.343 µg/mL) | 0.35 (≈ 0.343 µg/mL) | 0.75 (≈ 0.736 µg/mL) | 0.2 (≈ 0.196 µg/mL) | 0.45 (≈ 0.442 µg/mL) | 2 (≈ 1.96 µg/mL) | 1 (≈ 0.981 µg/mL) | 1 (≈ 0.981 µg/mL) | 0.763 | – | – | – | – | –
11 | CC1C=CC=CC=CC=CC=CC=CC=CC(OC2OC(C)C(O)C(N)C2O)CC2OC(O)(CC(O)CC(O)C(O)CCC(O)CC(O)CC(=O)OC(C)C(C)C1O)CC(O)C2C(=O)NC1CCC1 (stereo not shown) [BE] | 1 (≈ 0.977 µg/mL) | 2 (≈ 1.95 µg/mL) | 4 (≈ 3.91 µg/mL) | 0.5 (≈ 0.489 µg/mL) | 1 (≈ 0.977 µg/mL) | 8 (≈ 7.82 µg/mL) | 8 (≈ 7.82 µg/mL) | 4 (≈ 3.91 µg/mL) | 3.563 | 1.281 | – | – | – | –
12 | CC1C=CC=CC=CC=CC=CC=CC=CC(OC2OC(C)C(O)C(N)C2O)CC2OC(O)(CC(O)CC(O)C(O)CCC(O)CC(O)CC(=O)OC(C)C(C)C1O)CC(O)C2C(=O)NCC(O)CO (stereo not shown) [AK] | 0.15 (≈ 0.15 µg/mL) | 0.25 (≈ 0.249 µg/mL) | 0.4 (≈ 0.399 µg/mL) | 0.1 (≈ 0.0997 µg/mL) | 0.3 (≈ 0.299 µg/mL) | 1 (≈ 0.997 µg/mL) | 0.5 (≈ 0.499 µg/mL) | 0.75 (≈ 0.748 µg/mL) | 0.431 | – | – | – | – | –
13 | CC1C=CC=CC=CC=CC=CC=CC=CC(OC2OC(C)C(O)C(N)C2O)CC2OC(O)(CC(O)CC(O)C(O)CCC(O)CC(O)CC(=O)OC(C)C(C)C1O)CC(O)C2C(=O)NCC(F)F (stereo not shown) [BQ] | – | – | – | – | – | 4000 (≈ 3950 µg/mL) | – | – | – | – | – | 1.625 | 1625 | 0.30
